1 compound from PubChem BioAssay AID1117278 (The Scripps Research Institute Molecular Screening Center, 2014) can be followed below.

Active and inactive are the calls of the source. No rule for the calls is given here.

In the assay the test system is P. falciparum stage V gametocytes, BacTiter-Glo ATP, 24 h. Nature of the assay: viability inhibitors of stage V gametocytes – luminescence, dose response (AID 1117278).

On to `O=C(C[N+]12CCC(CC1)C(OC(=O)c1ccccc1)C2)c1ccc([N+](=O)[O-])cc1` (stereo unspecified), for which the IC50 (in general, the concentration that gives 50% inhibition) was > 109 µM (inactive).
